Tests used:
[1] = system: PD-L1; assay: Immunoblots for PD-L1 in PTEN-deficient GBM cells; type: cell-based, human and mouse; conditions: immunoblot; U87, PTEN-KO SF763, CT2A, 005 GSC, GSC23, GSC7-10; 24 hours
Description: Cell Culture. The GBM cell lines U87, U251, SF763, LN229, and CT2A, as well as 293T cells were cultured in Dulbecco's Modified Eagle's Medium (DMEM; Gibco, #11995-065). The mouse glioma cell line GL261 cells and SIM-A9 microglia were cultured in Dulbecco's Modified Eagle Medium-Ham's F12 medium (Gibco, #10565-018). HMC3 microglia were cultured in Eagle's Minimum Essential Medium (ATCC, #30-2003). THP-1 macrophages were cultured in RPMI 1640 medium (Gibco, #11875093). All cell lines were cultured in the indicated medium containing 10% fetal bovine serum (FBS; Fisher Scientific, #16140071) and 1:100 antibiotic-antimycotic (Gibco, #15140-122), and were purchased from the American Type Culture Collection (ATCC). Human GSCs (GSC23 and GSC7-10) and mouse GBM tumor-derived 005 GSCs and QPP7 GSCs were cultured in neural stem cell (NSC) proliferation media (Millipore, #SCM005) containing 20 ng/mL epidermal growth factor (EGF; PeproTech, #AF-100-15) and basic fibroblast growth factor (bFGF; PeproTech, #100-18B). Human GSCs were gifted by Dr. Frederick F. Lang from the Brain Tumor Center (The University of Texas MD Anderson Cancer Center). 005 GSCs and QPP7 GSCs were provided by Dr. Samuel D. Rabkin (Massachusetts General Hospital) and Dr. Jian Hu (The University of Texas MD Anderson Cancer Center), respectively. PTEN CRISPR KO in SF763 and LN229 cells were generated. […]

[2] = system: CT2A cells; assay: Survival of mice intracranially implanted with CT2A cells; type: in vivo, C57BL/6 mice; conditions: CT2A 2×10^4 cells/mouse; BAPN 2 g/L drinking water from day 4; SR9009 100 mg/kg i.p. 10 days from day 7; anti-PD1 10 mg/kg i.p. days 11, 14, 17; radiation 2.5 Gy 4 days from day 7
Description: Mice and Intracranial Xenograft Tumor Models. Female C57BL/6 mice at 3 to 4 weeks of age were purchased from the Jackson Laboratory (#0000664). All animals were grouped by 5 mice per cage and maintained in IVC System (San Diego, CA) for a week before the experiment. All animal experiments were performed with the approval of the Institutional Animal Care and Use Committee (IACUC) at Northwestern University. The intracranial xenograft tumor models were established previously. In brief, mice were anesthetized by isoflurane through IMPAC6 Anesthesia System. Then a dental drill was used to open a small hole in the skull of mice 1.2 mm anterior and 3.0 mm lateral to the bregma. Mice were placed into the stereotactic apparatus, and 5 μL 005 GSC, CT2A, or GL261 cells in FBS-free culture medium were injected into the right caudate nucleus 3 mm below the surface of the brain using a 10 μL Hamilton syringe with an unbeveled 30-gauge needle. The incision was closed using Vetbond glue. Meloxicam (20 mg/kg, daily) was subcutaneously injected for pain relief for 3 days after surgery. […]
Statistical analysis. […] The survival analysis for animal models was determined by conducting Log-rank (Mantel-Cox) test. […]

N#CCCN [BAPN, β-aminopropionitrile]
expression of PD-L1 [1]: upregulated | survival [2]: extended the survival

Source: US20250186396A1, “COMPOSITIONS AND METHODS FOR THE TREATMENT OF GLIOBLASTOMA WITH A DUAL TARGETING ANTI-TUMOR COMPOSITION” (Northwestern University, priority 2023, published 2025)
